Data as given in patent EP4667458A1 (Kanaph Therapeutics Inc., priority 2023, dated 2024).

The compounds below were run against T1, KRAS^G12C::SOS1 (Homo sapiens, UniProt Q07889) (assay: KRAS G12C::SOS1 protein-protein interaction (PPI) inhibition assay (HTRF binding kit)). Conditions: not given.
T1 sequence (Q07889 1-1333): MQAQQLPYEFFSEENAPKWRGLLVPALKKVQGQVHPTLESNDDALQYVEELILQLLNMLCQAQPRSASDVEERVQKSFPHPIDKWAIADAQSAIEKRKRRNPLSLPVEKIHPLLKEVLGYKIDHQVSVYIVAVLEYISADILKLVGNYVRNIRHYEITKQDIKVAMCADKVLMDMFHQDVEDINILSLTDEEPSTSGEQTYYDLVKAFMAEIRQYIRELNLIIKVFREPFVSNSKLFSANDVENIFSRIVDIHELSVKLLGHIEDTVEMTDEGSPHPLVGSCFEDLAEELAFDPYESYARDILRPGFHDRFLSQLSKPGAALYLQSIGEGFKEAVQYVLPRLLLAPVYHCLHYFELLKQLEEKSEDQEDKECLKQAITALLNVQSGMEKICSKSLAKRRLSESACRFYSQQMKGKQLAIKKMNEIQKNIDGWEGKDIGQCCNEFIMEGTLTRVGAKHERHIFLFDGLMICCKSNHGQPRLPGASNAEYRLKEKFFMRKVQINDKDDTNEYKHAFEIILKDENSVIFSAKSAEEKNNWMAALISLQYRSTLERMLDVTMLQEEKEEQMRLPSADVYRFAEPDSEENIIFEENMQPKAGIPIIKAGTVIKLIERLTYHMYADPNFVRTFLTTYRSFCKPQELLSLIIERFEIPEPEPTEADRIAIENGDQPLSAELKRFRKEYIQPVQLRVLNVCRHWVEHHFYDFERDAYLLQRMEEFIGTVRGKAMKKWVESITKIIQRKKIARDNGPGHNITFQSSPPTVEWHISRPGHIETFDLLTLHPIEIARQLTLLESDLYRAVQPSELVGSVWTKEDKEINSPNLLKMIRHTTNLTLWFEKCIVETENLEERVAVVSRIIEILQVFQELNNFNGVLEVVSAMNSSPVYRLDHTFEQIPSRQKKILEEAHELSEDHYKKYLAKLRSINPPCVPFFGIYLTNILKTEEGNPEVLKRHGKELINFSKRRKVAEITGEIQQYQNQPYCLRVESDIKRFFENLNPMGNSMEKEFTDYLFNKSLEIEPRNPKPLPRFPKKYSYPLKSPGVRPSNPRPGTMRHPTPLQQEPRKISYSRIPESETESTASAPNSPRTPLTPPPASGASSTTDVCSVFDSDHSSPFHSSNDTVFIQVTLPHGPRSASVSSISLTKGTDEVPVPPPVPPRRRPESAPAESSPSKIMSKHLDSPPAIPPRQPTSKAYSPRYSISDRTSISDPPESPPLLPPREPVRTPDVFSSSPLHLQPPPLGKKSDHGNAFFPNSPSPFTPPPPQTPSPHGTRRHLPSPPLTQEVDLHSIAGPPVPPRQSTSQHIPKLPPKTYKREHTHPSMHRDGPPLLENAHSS

Compound	IC50
C[C@@H](NC(=O)c1ccc(=O)n(-c2ccccc2)n1)c1cccc(I)c1 [Example 188, (R)-N-(1-(3-iodophenyl)ethyl)-6-oxo-1-phenyl-1,6-dihydropyridazine-3-carboxamide]	< 1000 nM
C[C@@H](NC(=O)c1ccc(=O)n(-c2cccc(-c3cnnn3C)c2)n1)c1cc(N)cc(C(F)(F)F)c1 [Example 369, N-[(1R)-1-[3-amino-5-(trifluoromethyl)phenyl]ethyl]-1-[3-(3-methyltriazol-4-yl)phenyl]-6-oxo-pyridazine-3-carboxamide]	< 1000 nM
C[C@@H](NC(=O)c1ccc(=O)n(-c2ncccc2F)n1)c1cc(N)cc(C(F)(F)F)c1 [Example 388]	> 10000 nM
CNCc1ccccc1-c1ccc([C@@H](C)NC(=O)c2nn(-c3cnn(C)c3)c(=O)c3cc[nH]c23)s1 [Example 275, N-[(1R)-1-[5-[2-(methylaminomethyl)phenyl]-2-thienyl]ethyl]-5-(1-methylpyrazol-4-yl)-4-oxo-1H-pyrrolo[2,3-d]pyridazine-7-carboxamide]	< 1000 nM
C[C@@H](NC(=O)c1ccc(=O)n(-c2ccc(OC(F)F)cc2)n1)c1cccc(C(F)(F)CO)c1F [Example 195, N-[(1R)-1-[3-(1,1-difluoro-2-hydroxy-ethyl)-2-fluoro-phenyl]ethyl]-1-[4-(difluoromethoxy)phenyl]-6-oxo-pyridazine-3-carboxamide]	< 1000 nM
C[C@@H](NC(=O)c1ccc(=O)n(-c2cccc(-c3ncnn3C)c2)c1)c1cc(N)cc(C(F)(F)F)c1 [Example 318, N-[(1R)-1-[3-amino-5-(trifluoromethyl)phenyl]ethyl]-1-[3-(2-methyl-1,2,4-triazol-3-yl)phenyl]-6-oxo-pyridine-3-carboxamide]	< 1000 nM
C[C@@H](NC(=O)c1ccc(=O)n(-c2ccccc2F)n1)c1cccc(C(F)(F)CN(C)C)c1 [Example 258, N-[(1R)-1-[3-[2-(dimethylamino)-1,1-difluoro-ethyl]phenyl]ethyl]-1-(2-fluorophenyl)-6-oxo-pyridazine-3-carboxamide]	< 1000 nM
C[C@@H](NC(=O)c1ccc(=O)n(-c2ccccc2F)c1)c1cccc(C(F)(F)CO)c1F [Example 181, N-[(1R)-1-[3-(1,1-difluoro-2-hydroxy-ethyl)-2-fluoro-phenyl]ethyl]-1-(2-fluorophenyl)-6-oxo-pyridine-3-carboxamide]	< 1000 nM
CNCc1ccccc1-c1ccc([C@@H](C)NC(=O)c2ccc(=O)n(-c3cnn(C)c3)n2)s1 [Example 278, N-[(1R)-1-[5-[2-(methylaminomethyl)phenyl]-2-thienyl]ethyl]-1-(1-methylpyrazol-4-yl)-6-oxo-pyridazine-3-carboxamide]	< 1000 nM
C[C@@H](NC(=O)c1ccc(=O)n(-c2cccnc2)n1)c1cccc(C(F)(F)CO)c1F [Example 146, N-[(1R)-1-[3-(1,1-difluoro-2-hydroxy-ethyl)-2-fluoro-phenyl]ethyl]-6-oxo-1-(3-pyridyl)pyridazine-3-carboxamide]	< 1000 nM
COc1ccc(-n2nc(C(=O)N[C@H](C)c3cccc(C(F)(F)CO)c3F)ccc2=O)c(F)c1 [Example 215, N-[(1R)-1-[3-(1,1-difluoro-2-hydroxy-ethyl)-2-fluoro-phenyl]ethyl]-1-(2-fluoro-4-methoxy-phenyl)-6-oxo-pyridazine-3-carboxamide]	< 1000 nM
C[C@@H](NC(=O)c1ccc(=O)n(-c2cccc(-c3nccs3)c2)n1)c1cccc(C(F)(F)CO)c1F [Example 336, N-[(1R)-1-[3-(1,1-difluoro-2-hydroxy-ethyl)-2-fluoro-phenyl]ethyl]-6-oxo-1-(3-thiazol-2-ylphenyl)pyridazine-3-carboxamide]	< 1000 nM
Cc1nc(-n2nc(C(=O)N[C@H](C)c3cc(N)cc(C(F)(F)F)c3)ccc2=O)cs1 [Example 386, N-[(1R)-1-[3-amino-5-(trifluoromethyl)phenyl]ethyl]-1-(2-methylthiazol-4-yl)-6-oxo-pyridazine-3-carboxamide]	< 1000 nM
CNCc1sccc1-c1cccc([C@@H](C)NC(=O)c2ccc(=O)n(-c3ccccc3F)n2)c1 [Example 291, 1-(2-fluorophenyl)-N-[(1R)-1-[3-[2-(methylaminomethyl)-3-thienyl]phenyl]ethyl]-6-oxo-pyridazine-3-carboxamide]	< 1000 nM
C[C@@H](NC(=O)c1nn(-c2ccccc2)c(=O)cc1Cl)c1cc(N)cc(C(F)(F)F)c1 [Example 220, N-[(1R)-1-[3-amino-5-(trifluoromethyl)phenyl]ethyl]-4-chloro-6-oxo-1-phenyl-pyridazine-3-carboxamide]	< 1000 nM
CNCc1ccc(F)cc1-c1ccc([C@@H](C)NC(=O)c2ccc(=O)n(-c3ccccc3F)c2)s1 [Example 287, N-[(1R)-1-[5-[5-fluoro-2-(methylaminomethyl)phenyl]-2-thienyl]ethyl]-1-(2-fluorophenyl)-6-oxo-pyridine-3-carboxamide]	< 1000 nM
CNCc1ccc(Cl)cc1-c1ccc([C@@H](C)NC(=O)c2ccc(=O)n(-c3ccccc3F)c2)s1 [Example 283, N-[(1R)-1-[5-[5-chloro-2-(methylaminomethyl)phenyl]-2-thienyl]ethyl]-1-(2-fluorophenyl)-6-oxo-pyridine-3-carboxamide]	< 1000 nM
CC(=O)Nc1cc(=O)n(-c2ccccc2F)nc1C(=O)N[C@H](C)c1cc(N)cc(C(F)(F)F)c1 [Example 382, 4-acetamido-N-[(1R)-1-[3-amino-5-(trifluoromethyl)phenyl]ethyl]-1-(2-fluorophenyl)-6-oxo-pyridazine-3-carboxamide]	< 1000 nM
C[C@@H](NC(=O)c1ccc(=O)n(-c2cccc(CO)c2)n1)c1cc(N)cc(C(F)(F)F)c1 [Example 169, N-[(1R)-1-[3-amino-5-(trifluoromethyl)phenyl]ethyl]-1-[3-(hydroxymethyl)phenyl]-6-oxo-pyridazine-3-carboxamide]	< 1000 nM
C[C@@H](NC(=O)c1nn(-c2ccccc2F)c(=O)c2sccc12)c1cc(N)cc(C(F)(F)F)c1 [Example 312, N-[(1R)-1-[3-amino-5-(trifluoromethyl)phenyl]ethyl]-6-(2-fluorophenyl)-7-oxo-thieno[2,3-d]pyridazine-4-carboxamide]	< 1000 nM
C[C@@H](NC(=O)c1nn(-c2ccccc2)c(=O)c2ccsc12)c1cc(N)cc(C(F)(F)F)c1 [Example 317, N-[(1R)-1-[3-amino-5-(trifluoromethyl)phenyl]ethyl]-4-oxo-5-phenyl-thieno[2,3-d]pyridazine-7-carboxamide]	< 1000 nM
COc1cccc(-n2cc(C(=O)N[C@H](C)c3cccc(C(F)(F)CO)c3F)ccc2=O)c1F [Example 186, N-[(1R)-1-[3-(1,1-difluoro-2-hydroxy-ethyl)-2-fluoro-phenyl]ethyl]-1-(2-fluoro-3-methoxyphenyl)-6-oxo-pyridine-3-carboxamide]	< 1000 nM
COc1cc(-n2nc(C(=O)N[C@H](C)c3cc(N)cc(C(F)(F)F)c3)ccc2=O)ccn1 [Example 196, N-[(1R)-1-[3-amino-5-(trifluoromethyl)phenyl]ethyl]-1-(2-methoxy-4-pyridyl)-6-oxo-pyridazine-3-carboxamide]	< 1000 nM
CNCc1ccc(F)cc1-c1ccc([C@@H](C)NC(=O)c2ccc(=O)n(-c3cccnc3OC)n2)s1 [Example 407]	< 1000 nM

Same assay, conditions: read-out: KRAS ^G12C::SOS1 PPI assay (IC50 range, Grade); maximum concentration 3 µM, 8 concentrations, three replicates

Compound	IC50
N-[(1R)-1-[3-amino-5-(trifluoromethyl)phenyl]ethyl]-6-oxo-1-(3-phenylphenyl)pyridazine-3-carboxamide [Example 212]	1000 to 10000 nM
